# In patent publication US20160039767A1, “PYRAZOLE DERIVATIVES AS PRMT1 INHIBITORS AND USES THEREOF” (EPIZYME, INC., priority 2013, published 2016):
# Where two headings read alike, the source gives them in different places.
# Legend:
# [1] = biological target: T1, PRMT1 (Homo sapiens, UniProt Q99873); assay: PRMT1 Biochemical Assay (3H-SAM Flashplate, histone H4 peptide substrate); details: Biochemical IC50 (Numerical, μM) PRMT1, single experiment or average of multiple experiments, Table 2a
# T1 construct: GST-tagged PRMT1; made in house; host or cells: High Five insect cells (baculovirus, pFastBacI)
# T1 sequence (Q99873 with tags, fused parts or gaps): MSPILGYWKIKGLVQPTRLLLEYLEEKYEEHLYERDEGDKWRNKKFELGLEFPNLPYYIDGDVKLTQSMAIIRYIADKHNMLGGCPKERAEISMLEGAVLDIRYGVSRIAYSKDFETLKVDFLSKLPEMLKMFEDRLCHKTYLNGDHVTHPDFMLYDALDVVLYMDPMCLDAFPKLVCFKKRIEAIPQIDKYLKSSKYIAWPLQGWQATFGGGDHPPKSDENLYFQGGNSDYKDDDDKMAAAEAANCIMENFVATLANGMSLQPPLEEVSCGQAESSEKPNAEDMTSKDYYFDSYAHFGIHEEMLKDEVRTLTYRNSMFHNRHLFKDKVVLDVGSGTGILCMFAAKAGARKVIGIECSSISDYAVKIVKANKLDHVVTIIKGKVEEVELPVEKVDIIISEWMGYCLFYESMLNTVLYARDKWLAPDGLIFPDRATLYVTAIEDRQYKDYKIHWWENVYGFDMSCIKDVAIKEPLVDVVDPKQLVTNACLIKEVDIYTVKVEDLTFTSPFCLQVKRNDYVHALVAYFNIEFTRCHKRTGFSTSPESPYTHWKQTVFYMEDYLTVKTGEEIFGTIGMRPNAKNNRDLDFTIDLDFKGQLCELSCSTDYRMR
# Source text: S-adenosylmethionine (SAM), S-adenosylhomocysteine (SAH), bicine, Tween20, dimethylsulfoxide (DMSO), bovine skin gelatin (BSG), and Tris(2-carboxyethyl)phosphine hydrochloride solution (TCEP) were purchased from Sigma-Aldrich at the highest level of purity possible. ^3H-SAM was purchase from American Radiolabeled Chemicals with a specific activity of 80 Ci/mmol. 384-well streptavidin Flashplates were purchased from PerkinElmer.
# Recombinant baculovirus were generated according to Bac-to-Bac kit instructions (Life Technologies). Protein over-expression was accomplished by infecting exponentially growing High Five insect cell culture at 1.5×10^6 cell/ml with 1:100 ratio of virus. Infections were carried out at 27° C. for 48 hours, harvested by centrifugation, and stored at −80° C. for purification.
# GST-tagged PRMT1 was eluted with 50 mM Tris, 2 mM glutathione, pH 7.8, dialysed in buffer A and concentrated to 1 mg/mL.
# General Procedure for PRMT1 Enzyme Assays on Peptide Substrates.
# The assays were all performed in a buffer consisting of 20 mM Bicine (pH=7.6), 1 mM TCEP, 0.005% BSG, and 0.002% Tween 20, prepared on the day of use. […] DMSO (1 ul) was added to Columns 11, 12, 23, 24, rows A-H for the maximum signal control and 1 ul of SAH, a known product and inhibitor of PRMT1, was added to columns 11, 12, 23, 24, rows I-P for the minimum signal control. A cocktail (40 ul) containing the PRMT1 enzyme was added by Multidrop Combi (Thermo-Fisher). The compounds were allowed to incubate with PRMT1 for 30 min at room temperature, then a cocktail (10 ul) containing SAM and peptide was added to initiate the reaction (final volume=51 ul). […] The assays were stopped by the addition of non-radiolabeled SAM (10 ul) to a final concentration of 300 uM, which dilutes the ^3H-SAM to a level where its incorporation into the peptide substrate is no longer detectable. […] The plates were then read in a PerkinElmer TopCount plate reader to measure the quantity of ^3H-labeled peptide bound to the Flashplate surface, measured as disintegrations per minute (dpm) or alternatively, referred to as counts per minute (cpm).
# Where dpm=disintegrations per minute, cmpd=signal in assay well, and min and max are the respective minimum and maximum signal controls.
# Where top and bottom are the normally allowed to float, but may be fixed at 100 or 0 respectively in a 3-parameter fit. The Hill Coefficient normally allowed to float but may also be fixed at 1 in a 3-parameter fit. Y is the % inhibition and X is the compound concentration.
# [2] = tested on: RKO cells; assay: RKO Methylation Assay (In Cell Western for mono-methyl arginine and DNA content); type: cell-based; details: Homo sapiens
# Source text: RKO adherent cells were purchased from ATCC (American Type Culture Collection), Manassas, Va., USA. DMEM/Glutamax medium, penicillin-streptomycin, heat inactivated fetal bovine serum, 0.05% trypsin and D-PBS were purchased from Life Technologies, Grand Island, N.Y., USA. Odyssey blocking buffer, 800CW goat anti-rabbit IgG (H+L) antibody, and Licor Odyssey infrared scanner were purchased from Licor Biosciences, Lincoln, Nebr., USA. Mono-methyl arginine antibody was purchased from Cell Signaling Technology, Danvers, Mass., USA. Methanol was purchased from VWR, Franklin, Mass., USA. 10% Tween 20 was purchased from KPL, Inc., Gaithersburg, Md., USA. DRAQ5 was purchased from Biostatus Limited, Leicestershire, UK.
# RKO adherent cells were maintained in growth medium (DMEM/Glutamax medium supplemented with 10% v/v heat inactivated fetal bovine serum and 100 units/mL penicillin-streptomycin) and cultured at 37° C. under 5% CO2.
# Cell Treatment, in Cell Western (ICW) for Detection of Mono-Methyl Arginine and DNA Content.
# Compound (100 nL) from a 96-well source plate was added directly to 384 well cell plate. Plates were incubated at 37° C., 5% CO2 for 72 hours. After three days of incubation, plates were brought to room temperature outside of the incubator for ten minutes and blotted on paper towels to remove cell media. 50 μL of ice cold 100% methanol was added directly to each well and incubated for 30 min at room temperature. After 30 min, plates were transferred to a Biotek EL406 plate washer and washed 2 times with 100 μL per well of wash buffer (1×PBS). Next 60 μL per well of Odyssey blocking buffer (Odyssey Buffer with 0.1% Tween 20 (v/v)) were added to each plate and incubated 1 hour at room temperature. Blocking buffer was removed and 20 μL per well of primary antibody was added (mono-methyl arginine diluted 1:200 in Odyssey buffer with 0.1% Tween 20 (v/v)) and plates were incubated overnight (16 hours) at 4° C. Plates were washed 5 times with 100 µL per well of wash buffer. Next 20 μL per well of secondary antibody was added (1:200 800CW goat anti-rabbit IgG (H+L) antibody, 1:1000 DRAQ5 (Biostatus limited) in Odyssey buffer with 0.1% Tween 20 (v/v)) and incubated for 1 hour at room temperature. The plates were washed 5 times with 100 μL per well wash buffer then 2 times with 100 μL per well of water. Plates were allowed to dry at room temperature then imaged on the Licor Odyssey machine which measures integrated intensity at 700 nm and 800 nm wavelengths. Both 700 and 800 channels were scanned.
# First, the ratio for each well was determined by:
# Each plate included fourteen control wells of DMSO only treatment (minimum activation) as well as fourteen control wells for maximum activation treated with 20 μM of a reference compound. The average of the ratio values for each control type was calculated and used to determine the percent activation for each test well in the plate. Reference compound was serially diluted three-fold in DMSO for a total of nine test concentrations, beginning at 20 μM. Percent activation was determined and EC30 curves were generated using triplicate wells per concentration of compound.
# [3] = RKO, 72 h, read-out: In Cell Western data (Numerical, μM) EC30
# [4] = RKO, 72 h, read-out: In Cell Western data EC30
# [5] = RKO cells, 72 hours, mono-methyl arginine, class symbols, Table 3, read-out: In Cell Western data EC30
# [6] = RKO cells, 72 hours, mono-methyl arginine, single experiment or average of multiple experiments, Table 3a, read-out: In Cell Western data (Numerical, μM) EC30
Structure (SMILES),IC50 [1] [µM],"EC30 [2, 3] [µM]","EC30 [2, 4] [µM]","EC30 [2, 5] [µM]","EC30 [2, 6] [µM]"
CNCCN(C)Cc1c[nH]nc1-c1cc(OCC2CCC2)cc(C(F)(F)F)c1 [Compound 44],0.0132,4.52,3.01 to 12,–,–
CC(C)Oc1ccc(-c2n[nH]cc2CN(C)CCN)cc1C(F)(F)F [Compound 5],0.00445,0.305,< 3,–,–
CNCCN(C)Cc1c[nH]nc1-c1ccc(OCCCOC)c(C(F)(F)F)c1 [Compound 13],0.0108,0.567,< 3,–,–
CN(CCN)Cc1n[nH]cc1-c1ccc(Oc2ccccc2)c(C(F)(F)F)c1 [Compound 26],0.00917,–,–,–,–
CNCCN(C)Cc1c[nH]nc1-c1cc(OCCc2ccccc2)cc(C(F)(F)F)c1 [Compound 42],–,2.7,< 3,–,–
CNCCN(C)Cc1c[nH]nc1-c1cc(C)c(OCC2CCC2)c(C(F)(F)F)c1 [Compound 58],0.00706,0.547,< 3,–,–
COCCOc1cc(-c2n[nH]cc2CN(C)CCN)cc(C(F)(F)F)c1Cl [Compound 56],0.194,–,–,–,–
CCCOc1ccc(-c2c[nH]nc2CN(C)CCNC)cc1C(F)(F)F [Compound 28],0.00659,–,–,< 3,1.1
CN(CCN)Cc1c[nH]nc1-c1ccc(Oc2ccccc2)c(C(F)(F)F)c1 [Compound 23],0.00301,1.51,< 3,–,–
CC(C)Oc1ccc(-c2c[nH]nc2CN(C)CCN)cc1C(F)(F)F [Compound 8],0.0165,–,–,< 3,2.69
CNCCN(C)Cc1c[nH]nc1-c1cc(C)c(OCC2CCOCC2)c(C(F)(F)F)c1 [Compound 65],0.0471,1.45,< 3,–,–
CNCCN(C)Cc1c[nH]nc1-c1cc(OCC2CCOCC2)cc(C(F)(F)F)c1 [Compound 46],0.0282,2.62,< 3,–,–
CN(CCN)Cc1n[nH]cc1-c1cc(C(F)(F)F)cc(C(F)(F)F)c1 [Compound 7],2.6,–,–,–,–
CNCCN(C)Cc1n[nH]cc1-c1cc(Cl)c(OC(C)C)c(C(F)(F)F)c1 [Compound 33],0.0441,–,–,–,–
CNCCN(C)Cc1c[nH]nc1-c1ccc(OCCC(C)C)c(C(F)(F)F)c1 [Compound 9],–,1.77,< 3,–,–
CN(CCN)Cc1c[nH]nc1-c1ccc(F)c(C(F)(F)F)c1 [Compound 4],0.0572,–,–,–,–
CC(C)CCOc1cc(-c2n[nH]cc2CN(C)CCN)cc(C(F)(F)F)c1Cl [Compound 40],0.152,–,–,–,–
CN(CCN)Cc1c[nH]nc1-c1ccc(Cl)c(C(F)(F)F)c1 [Compound 3],0.0232,–,–,–,–

# More lines, main results first:
IC50 [1] [µM],Structure (SMILES),"EC30 [2, 3] [µM]","EC30 [2, 4] [µM]","EC30 [2, 5] [µM]","EC30 [2, 6] [µM]"
0.0189,CNCCN(C)Cc1n[nH]cc1-c1cc(OCCC(C)C)cc(C(F)(F)F)c1 [Compound 22],–,–,–,–
0.0259,CNCCN(C)Cc1c[nH]nc1-c1cc(OC2CCCCC2)cc(C(F)(F)F)c1 [Compound 39],–,–,–,–
0.0318,CNCCN(C)Cc1c[nH]nc1-c1cc(OCCCOC)c(Cl)c(C(F)(F)F)c1 [Compound 57],–,–,–,–
0.299,CNCCN(C)Cc1c[nH]nc1-c1cc(Oc2cncnc2)cc(C(F)(F)F)c1 [Compound 53],–,–,–,–
0.139,CNCCN(C)Cc1n[nH]cc1-c1cc(OCCCOC)cc(C(F)(F)F)c1 [Compound 27],–,–,–,–
0.0138,CNCCN(C)Cc1c[nH]nc1-c1cc(OCCc2ccccc2OC)cc(C(F)(F)F)c1 [Compound 50],–,–,3.01 to 12,4.37
0.0359,CNCCN(C)Cc1c[nH]nc1-c1cc(Oc2ccccn2)cc(C(F)(F)F)c1 [Compound 52],–,–,3.01 to 12,4.44
0.146,CNCCN(C)Cc1c[nH]nc1-c1cc(OCCC(C)C)c(Cl)c(C(F)(F)F)c1 [Compound 54],–,–,–,–
0.00704,CNCCN(C)Cc1c[nH]nc1-c1cc(OCCC(C)C)cc(C(F)(F)F)c1 [Compound 12],–,–,< 3,1.44
0.0103,CNCCN(C)Cc1c[nH]nc1-c1cc(OCC2CCCC2)cc(C(F)(F)F)c1 [Compound 45],–,–,–,–
0.0303,CNCCN(C)Cc1c[nH]nc1-c1cc(OCCCC(F)(F)F)cc(C(F)(F)F)c1 [Compound 48],–,–,3.01 to 12,4.2
0.0204,CNCCN(C)Cc1c[nH]nc1-c1cc(OCCOC)cc(C(F)(F)F)c1 [Compound 16],–,–,< 3,2.24
0.0663,CNCCN(C)Cc1n[nH]cc1-c1cc(OCC(C)C)cc(C(F)(F)F)c1 [Compound 29],–,–,–,–
0.0275,CCCOc1cc(-c2n[nH]cc2CN(C)CCNC)cc(C(F)(F)F)c1 [Compound 19],–,–,3.01 to 12,5.07
0.0185,CNCCN(C)Cc1c[nH]nc1-c1cc(OCc2ccccc2)cc(C(F)(F)F)c1 [Compound 37],–,–,3.01 to 12,5
0.0165,CNCCN(C)Cc1c[nH]nc1-c1cc(OCCCC(=O)OC)cc(C(F)(F)F)c1 [Compound 61],–,–,–,–
0.123,CNCCN(C)Cc1c[nH]nc1-c1cccc(C(F)(F)F)c1 [Compound 1],–,–,–,–
0.138,CNCCN(C)Cc1c[nH]nc1-c1cc(Oc2ccncc2)cc(C(F)(F)F)c1 [Compound 38],–,–,3.01 to 12,8.58
0.0576,CNCCN(C)Cc1c[nH]nc1-c1cc(OCC(F)(F)F)cc(C(F)(F)F)c1 [Compound 60],–,–,–,–
0.389,CN(CCN)Cc1c[nH]nc1-c1cc(C(F)(F)F)cc(C(F)(F)F)c1 [Compound 2],–,–,–,–
0.163,CNCCN(C)Cc1c[nH]nc1-c1cc(OCCOC)c(Cl)c(C(F)(F)F)c1 [Compound 55],–,–,–,–
0.0114,CC(C)CCc1cc(-c2n[nH]cc2CN(C)CCN)cc(C(F)(F)F)c1 [Compound 63],–,–,–,–
0.0136,CNCCN(C)Cc1c[nH]nc1-c1cc(CCC(C)C)cc(C(F)(F)F)c1 [Compound 62],–,–,–,–
0.0162,CNCCN(C)Cc1c[nH]nc1-c1cc(OCC(C)C)cc(C(F)(F)F)c1 [Compound 15],–,–,–,–
> 1,CNCCN(C)Cc1n[nH]cc1-c1cc(C(O)C(C)C)cc(C(F)(F)F)c1 (centres unmarked) [Compound 32],–,–,–,–
0.17,CCCOc1cc(-c2c[nH]nc2CN(C)CCNC)cc(C(F)(F)F)c1 [Compound 31],–,–,–,–
